Active and inactive are the calls of the source. The rule behind the calls is not given here.
Assays:
K562/Adr [1] = experiment: Induction of apoptosis in human K562/ADR cells assessed as ratio of cleaved caspase-9 to beta-actin level at 0.1 uM pretreated with MAPK inhibitor SP600125 for 1 hr followed by compound addition measured after 48 hrs by Western blot analysis (reference value: 0.05); format: functional
K562/Adr [2] = experiment: Induction of apoptosis in human K562/ADR cells assessed as early apoptotic cells at 0.1 uM pretreated with MAPK inhibitor U0126 for 1 hr followed by compound addition after 48 hrs by Annexin V-APC/7-AAD staining based flow cytometry (reference value: 2.74%); format: functional; design: scale not given: the % may be the effect or the level left
[3] = Downregulation of CyclinB1 expression in human K562/ADR cells assessed as ratio of CyclinB1 to beta-actin level at 0.1 uM pretreated with MAPK inhibitor SP600125 for 1 hr followed by compound addition measured after 48 hrs by Western blot analysis (reference value: 0.77); format: functional, cell-based
[4] = Downregulation of CyclinA expression in human K562/ADR cells assessed as ratio of CyclinA to beta-actin level at 0.1 uM measured after 48 hrs by Western blot analysis (reference value: 0.64); format: functional, cell-based
K562/Adr [5] = experiment: Induction of apoptosis in human K562/ADR cells assessed as necrotic cells at 0.1 uM pretreated with MAPK inhibitor U0126 for 1 hr followed by compound addition after 48 hrs by Annexin V-APC/7-AAD staining based flow cytometry (reference value: 0.26%); format: functional; design: scale not given: the % may be the effect or the level left
K562/Adr [6] = experiment: Induction of apoptosis in human K562/ADR cells assessed as late apoptotic cells at 0.1 uM pretreated with ROS scavenger NAC for 2 hrs followed by compound addition after 48 hrs by Annexin V-APC/7-AAD staining based flow cytometry (reference value: 1.69%); format: functional
K562/Adr [7] = experiment: Induction of apoptosis in human K562/ADR cells assessed as ratio of cleaved caspase-8 to beta-actin level at 0.1 uM pretreated with ROS scavenger NAC for 2 hrs followed by compound addition measured after 48 hrs by Western blot analysis (reference value: 0.07); format: functional
[8] = Downregulation of CDK1 expression in human K562/ADR cells assessed as ratio of CDK1 to beta-actin level at 0.1 uM measured after 48 hrs by Western blot analysis (reference value: 0.53); format: functional, cell-based
K562/Adr [9] = experiment: Induction of apoptosis in human K562/ADR cells assessed as early apoptotic cells at 0.1 uM after 48 hrs by Annexin V-APC/7-AAD staining based flow cytometry (reference value: 2.74%); format: functional
[10] = target: T1, c-Jun N-terminal kinase, JNK (Homo sapiens) (UniProt P45983+P53779+P45984); experiment: Induction of JNK phosphorylation in human K562/ADR cells assessed as ratio of phosphorylated JNK to beta-actin level at 0.1 uM pretreated with MAPK inhibitor U0126 for 1 hr followed by compound addition after 48 hrs by Western blotting method (reference value: 0.46); format: cell-based
K562/Adr [11] = experiment: Induction of intracellular ROS accumulation in human K562/ADR cells assessed as fluorescence intensity at 0.1 uM measured after 24 hrs by DCFH-DA probe based flow cytometry relative to vehicle-treated control; format: functional
[12] = Downregulation of CyclinA expression in human K562/ADR cells assessed as ratio of CyclinA to beta-actin level at 0.1 uM pretreated with MAPK inhibitor SB203580 for 1 hr followed by compound addition measured after 48 hrs by Western blot analysis (reference value: 0.64); format: functional, cell-based
K562/Adr [13] = experiment: Induction of apoptosis in human K562/ADR cells assessed as viable cells at 0.1 uM pretreated with ROS scavenger NAC for 2 hrs followed by compound addition after 48 hrs by Annexin V-APC/7-AAD staining based flow cytometry (reference value: 95.31%); format: functional; details: read-out: Activity
K562/Adr [14] = experiment: Induction of apoptosis in human K562/ADR cells assessed as chromatin condensation at 0.1 uM measured after 24 hrs by Hoechst33342 staining-based inverted fluorescent microscopic analysis; format: functional, cell-based
[15] = Downregulation of CDK2 expression in human K562/ADR cells assessed as ratio of CDK2 to beta-actin level at 0.1 uM pretreated with MAPK inhibitor SB203580 for 1 hr followed by compound addition measured after 48 hrs by Western blot analysis (reference value: 0.65); format: functional, cell-based
K562/Adr [16] = experiment: Induction of apoptosis in human K562/ADR cells assessed as late apoptotic cells at 0.1 uM pretreated with MAPK inhibitor U0126 for 1 hr followed by compound addition after 48 hrs by Annexin V-APC/7-AAD staining based flow cytometry (reference value: 1.69%); format: functional; design: scale not given: the % may be the effect or the level left
[17] = Downregulation of CDK1 expression in human K562/ADR cells assessed as ratio of CDK1 to beta-actin level at 0.1 uM pretreated with MAPK inhibitor SB203580 for 1 hr followed by compound addition measured after 48 hrs by Western blot analysis (reference value: 0.53); format: functional, cell-based
[18] = target: T1, c-Jun N-terminal kinase, JNK (Homo sapiens); experiment: Induction of JNK phosphorylation in human K562/ADR cells assessed as ratio of phosphorylated JNK to beta-actin level at 0.1 uM measured after 48 hrs by Western blotting (reference value: 0.46); format: cell-based
K562/Adr [19] = experiment: Induction of apoptosis in human K562/ADR cells assessed as necrotic cells at 0.1 uM after 48 hrs by Annexin V-APC/7-AAD staining based flow cytometry (reference value: 0.26%); format: functional
[20] = Cell cycle arrest in human K562/ADR cells assessed as accumulation at S-phase at 0.1 uM measured after 48 hrs by propidium iodide staining-based flow cytometry (reference value: 47.29 +/- 2.22%); format: functional
[21] = Downregulation of CDK2 expression in human K562/ADR cells assessed as ratio of CDK2 to beta-actin level at 0.1 uM pretreated with MAPK inhibitor SP600125 for 1 hr followed by compound addition measured after 48 hrs by Western blot analysis (reference value: 0.65); format: functional, cell-based
K562/Adr [22] = experiment: Induction of apoptosis in human K562/ADR cells assessed as ratio of cleaved caspase-8 to beta-actin level at 0.1 uM measured after 48 hrs by Western blot analysis (reference value: 0.07); format: functional
K562/Adr [23] = experiment: Induction of apoptosis in human K562/ADR cells assessed as ratio of cleaved caspase-3 to beta-actin level at 0.1 uM pretreated with ROS scavenger NAC for 2 hrs followed by compound addition measured after 48 hrs by Western blot analysis (reference value: 0.06); format: functional
K562/Adr [24] = experiment: Induction of apoptosis in human K562/ADR cells assessed as necrotic cells at 0.1 uM pretreated with ROS scavenger NAC for 2 hrs followed by compound addition after 48 hrs by Annexin V-APC/7-AAD staining based flow cytometry (reference value: 0.26%); format: functional
K562/Adr [25] = experiment: Induction of apoptosis in human K562/ADR cells assessed as ratio of cleaved caspase-3 to beta-actin level at 0.1 uM pretreated with MAPK inhibitor U0126 for 1 hr followed by compound addition measured after 48 hrs by Western blot analysis (reference value: 0.06); format: functional
[26] = Antiproliferative activity against human K562/ADR cells measured after 72 hrs by CCK8 assay; format: functional, cell-based

## COc1cc([C@@H]2c3cc4c(cc3[C@H](OC(=O)c3ccco3)[C@H]3COC(=O)[C@H]23)OCO4)cc(OC)c1OC
K562/Adr [1]
  Ratio: 0.47
K562/Adr [2]
  Activity: 8.73%
[3]
  Ratio: 0.25
[4]
  Ratio: 0.15
K562/Adr [5]
  Activity: 3.32%
K562/Adr [6]
  Activity: 24.34%
K562/Adr [7]
  Ratio: 0.15
[8]
  Ratio: 0.17
K562/Adr [9]
  Activity: 7.92%
[10]
  Ratio: 0.35
K562/Adr [11]
  fold change (FC): 2.396
[12]
  Ratio: 0.34
K562/Adr [13]
  viability at 0.1 µM: 65.5%
K562/Adr [14]
  Activity: Active
[15]
  Ratio: 0.24
K562/Adr [16]
  Activity: 31.44%
[17]
  Ratio: 0.2
[18]
  Ratio: 0.83
K562/Adr [19]
  Activity: 5.49%
[20]
  Activity: 60.8%
[21]
  Ratio: 0.22
K562/Adr [22]
  Ratio: 0.77
K562/Adr [23]
  Ratio: 0.2
K562/Adr [24]
  Activity: 2.14%
K562/Adr [25]
  Ratio: 0.49
[26]
  IC50: 32 nM

From ChEMBL document CHEMBL3872207, “Aromatic heterocyclic esters of podophyllotoxin exert anti-MDR activity in human leukemia K562/ADR cells via ROS/MAPK signaling pathways” (Eur J Med Chem, 2016)
